From US12661355B2, “Compounds and methods for inducing UCP1 expression” (The Regents of the University of California, priority 2020, dated 2026)

Assays:
Assay type in all cases: cell-based, mouse
[1] = tested on: Ucp1; assay: Gene expression by qPCR in primary brown adipocytes; conditions: for expression of markers of brown adipocyte identity, mitochondrial function and fatty acid oxidation genes / endogenous Ucp1 expression: 10 μM; for endogenous Ucp1 expression: primary mouse brown adipocytes
Procedure: (§1) Primary brown adipocytes were isolated according to known methods. An established mouse brown adipocyte cell line was obtained from Dr. Bruce Spiegelman (Dana-Farber Cancer Institute, Boston, USA). To differentiate primary and immortalized brown adipocytes, cells were grown until confluency in DMEM containing 10% FBS, 25 mM glucose 1 mM pyruvate, 2 mM glutamine, 20 nM insulin, 1 nM T3, and antibiotics. Once confluent (day 0), differentiation was induced by supplementing the medium with 0.5 mM IBMX, 0.5 μM dexamethasone, and 0.125 mM indomethacin, for 2 days. Differentiation was continued in the original medium (without IBMX, dexamethasone and indomethacin) for 7-10 days.
(§2) RNA levels were measured by qPCR according to known methods. Briefly, RNA was extracted with TRIzol (Invitrogen) and reverse transcribed with iScript (Bio-Rad). Real-time PCR analysis was performed with a CFX Connect (Bio-Rad).
(§3) Mouse RNA levels were measured by qPCR according to known methods. Data were normalized to B2m and Tbp reference genes. Human RNA was extracted using an RNA Mini Plus kit (Zymo) and gene expression determined by Taqman assay. The 1-step qPCR was run on a QuantStudio 12K Flex Real Time PCR System (ThermoFisher) using the following protocol: 50° C. for 5 minutes, 95° C. for 20 seconds, 40 cycles of 95° C. for 15 seconds and 60° C. for 60 seconds. Data were normalized to PPIA and PSMB2 reference genes. For global gene expression analysis, RNA isolated from brown adipocytes treated with compounds as indicated (four biological replicates) was hybridized to Illumina mouse Ref 8 V2.0 bead chips at the University of California, Los Angeles Neuroscience Genomics Core as previously described. Data were processed with GenomeStudio V2011.1 using the quantile normalization, background subtraction, and a present call of P<0.05.

[2] = tested on: phospho-(Ser/Thr) PKA substrate; assay: Phosphorylation of PKA substrates by Western blot in brown adipocytes; conditions: overnight, 10 μM
Procedure: Cells and tissues were lysed in 10 mM Tris pH 7.5, 10 mM NaCl, 1 mM EDTA and 0.5% Triton X-100, supplemented with complete mini EDTA-free protease (Roche Diagnostics) and phosphatase (Cocktail 2 and 3, Sigma) inhibitors, followed by 10 second sonication. For analysis of mitochondrial proteins, mitochondria were isolated from cells by dual centrifugation, as described. Protein lysates were separated by SDS-PAGE and transferred to a nitrocellulose membrane. Transfer was confirmed by Ponceau staining (P7170, Sigma). After blocking in 5% milk, 0.1% Tween-20 in Tris-buffered saline (TBS), primary antibody was incubated overnight at 4° C. in 5% bovine serum albumin and 0.1% Tween-20 in TBS. Primary antibodies against ACTB (GTX109639, GeneTex), AKAP1 (5203, Cell Signaling), AKAP6 (07-087, Millipore), Cytochrome c (136F3, Cell Signaling), electron transport chain protein complexes (Total OXPHOS rodent WB antibody cocktail ab110413, Abcam), GAPDH (GTX100118, Genetex), active p38 MAPK (V1211, Promega), total p38 MAPK (8690, Cell Signaling), PGC1α (AB3242, Millipore), phospho-(Ser/Thr) PKA substrate (9621, Cell Signaling), PKA C-α (4782, Cell Signaling), PKA RII-β (ab75993, Abcam), and UCP1 (662045, Calbiochem) were used at 1:2000. […] Quantification using representative bands from the Ponceau staining was performed with ImageJ.

[3] = tested on: PKA; assay: PKA activity ELISA, brown adipocytes treated overnight; conditions: immortalized brown adipocytes, 10 μM
Procedure: PKA kinase activity was measured with an ELISA that utilized a synthetic peptide as substrate for PKA and a polyclonal antibody that recognizes the phosphorylated form of the substrate (ab139435, Abcam). PKA activity was measured in lysates from cultured brown adipocytes, mouse BAT, or liver. Cells and tissues were lysed in 20 mM MOPS, 5 mM EGTA, 2 mM EDTA, and 0.1% Triton X-100 supplemented with protease and phosphatase inhibitor as described above. Protein concentration was determined by Bradford assay and 10 μg of cells, 0.25 μg of BAT extract, or 0.5 μg of liver extract were assessed for PKA activation according to the manufacturer's instruction, with minor changes. Briefly, vehicle or Z160 was incubated with brown adipocyte cells overnight or with protein lysates for 30 min, followed by one wash before the primary antibody, 60 min incubation with the primary antibody, 30 min incubation with the secondary antibody, and by 10 min washing. Absorbance was measured after the substrate was added for 20-60 min, depending the intensity of the signal.

[4] = tested on: Ucp1; assay: Gene expression by qPCR in immortalized brown adipocytes
Procedure: as §1
TScreening was conducted at the UCLA Molecular Screening Shared Resource using automated instruments Immortalized brown adipocytes were differentiated in T225 flasks and plated in Matrix 384-well plates (26,000 cells per well) with white flat bottom (ThermoScientific) using trypsin and collagenase type II (Sigma C6885). The small molecule libraries screened were a BioMol library (204 compounds), an FDA-approved drug library (1120 compounds), a Microsource spectrum collection (2000 compounds), and a druggable compound set (8000 compounds). Molecules were delivered at 10 μM final concentration in DMSO. The screen was performed in duplicate on different days. After 18 h, luciferase activity was measured with Bright-Glo luciferase assay system and an LJL instrument. Data were normalized to the basal response (100% activity) in the presence of DMSO. Following the primary screen, 92 molecules were selected for validation and used to treat brown adipocyte cells plated in a 96-well plate overnight. RNA was extracted with an SV 96 Total RNA Isolation System (Promega). Compounds used for follow-up studies were identified using search tools available from Molport (molport.com), and ordered from the same company.
as §2, §3

[5] = immortalized brown adipocytes, 10 μM

O=C(CSc1nc2ccccc2c(=O)[nH]1)Nc1ccc2c(c1)OCCO2 [AST070, N-(2,3-dihydro-1,4-benzodioxin-6-yl)-2-[(4-oxo-3,4-dihydroquinazolin-2-yl)sulfanyl]acetamide]
expression of markers of brown adipocyte identity, mitochondrial function and fatty acid oxidation genes ([1]; primary brown adipocytes): promoted expression
endogenous Ucp1 expression [1]: 29 fold
phosphorylation of PKA substrates [2]: increased the levels of phosphorylation
PKA activity [3]: significantly increased
Ucp1 expression induction ([4]; 1 μM compared with 10 μM): lower induction
duration of effect on Ucp1 expression ([4]; 10 μM): at least 24 h
earliest time at which effect on Ucp1 expression was observed ([4]; 10 μM): 5 h
expression of markers of brown adipocyte identity, mitochondrial function and fatty acid oxidation genes [4, 5]: promoted expression
concentration of optimal Ucp1 expression induction ([4]; titration, overnight treatment): 10 µM

COc1ccc(NC(=O)CSc2nc3ccccc3c(=O)[nH]2)c(OC)c1 [Z160]
expression of markers of brown adipocyte identity, mitochondrial function and fatty acid oxidation genes ([1]; primary brown adipocytes): promoted expression
expression of lipolytic enzymes (Atgl, Hsl) and FGF21 at the mRNA level ([1]; primary brown adipocytes, 10 μM overnight): increased expression
endogenous Ucp1 expression [1]: 62 fold
phosphorylation of PKA substrates [2]: increased the levels of phosphorylation
PKA activity [3]: significantly increased
potency on Ucp1 induction compared with AST070 ([4]; 10 μM): greater potency than AST070
expression of markers of brown adipocyte identity, mitochondrial function and fatty acid oxidation genes [4, 5]: promoted expression
expression of lipolytic enzymes (Atgl, Hsl) and FGF21 at the mRNA level ([4]; immortalized brown adipocytes, 10 μM overnight): increased expression
